Series [1] deals with Escherichia coli. The experiment in a line: Antibacterial activity against Escherichia coli ATCC 25922 assessed as bacterial growth inhibition. The class given is functional.
Series [2] can be described thus: Inhibition of Escherichia coli LeuRS using Escherichia coli tRNA as substrate incubated for 20 mins in presence of 14C-leucine/ATP.
The subject of series [3] is Klebsiella pneumoniae. Briefly: Antibacterial activity against Klebsiella pneumoniae Delta-217 assessed as bacterial growth inhibition incubated for 16 hrs by broth dilution method. The class given is functional. (In broth dilution the organism is exposed to a series of concentrations in liquid medium.)
In series [4] the test system is Salmonella typhimurium. Briefly: Antibacterial activity against Salmonella typhimurium Delta-119 assessed as bacterial growth inhibition incubated for 16 hrs by broth dilution method. The class given is functional, Salmonella enterica subsp. enterica serovar Typhimurium. As to conditions: Salmonella enterica.
The subject of series [5] is Prototheca zopfii. The experiment in a line: Antimicrobial activity against Prototheca zopfii assessed as microbial growth inhibition by CLSI protocol based assay. It counts as functional.
Series [6] in a line: Anticancer activity against human 1321N1 cells assessed as cell growth inhibition by dynamic assay. It counts as functional, cell-based.
Series [7] concerns Caco-2. The experiment in a line: Anticancer activity against human Caco-2 cells assessed as cell growth inhibition by cytometry. The class given is functional, cell-based.
The nature of series [8]: AUC (0 to 24 hrs) in C57BL/6 mouse at 30 mg/kg, po qd via gavage measured for 0.25 to 24 hrs post dose by LC-MS/MS analysis. As to conditions: in vivo. It counts as ADME, organism-based. Further details: dose 30 mg/kg, time 0.25-24 hrs, route po.
Series [9] in a line: Dose normalized AUC (0 to 24 hrs) in C57BL/6 mouse at 30 mg/kg, po qd via gavage measured for 0.25 to 24 hrs post dose by LC-MS/MS analysis. The class given is ADME, organism-based. As to conditions: in vivo, time 0.25-24 hrs.
Series [10] is described as follows: Dose normalized AUC (0 to infinity) in C57BL/6 mouse at 5.5 mg/kg, iv qd measured for 0.083 to 24 hrs post dose by LC-MS/MS analysis. It counts as ADME, organism-based. As to conditions: in vivo, time 0.083-24 hrs.
Series [11] concerns Mycobacterium tuberculosis. The experiment in a line: Antibacterial activity against Mycobacterium tuberculosis H37Rv infected in C57BL/6J mouse model of acute TB infection administered once daily for 8 days and measured after 24 hrs. It counts as functional. As to conditions: 216 h, time 9 day.
Series [12] in a line: Half life in C57BL/6 mouse at 30 mg/kg, po qd via gavage measured for 0.25 to 24 hrs post dose by LC-MS/MS analysis. It counts as ADME, organism-based. The following applies: in vivo, time 0.25-24 hrs.
In series [13] the test system is Candida albicans. Briefly: Antifungal activity against Candida albicans assessed as fungal growth inhibition at 25 ug incubated for 48 hrs by disk diffusion method. It counts as functional. The following applies: read-out: IZ. In general terms: A growth-free zone around the sample is the usual read-out of agar diffusion tests.
Series [14] deals with Aspergillus niger. The experiment in a line: Antifungal activity against Aspergillus niger assessed as fungal growth inhibition at 25 ug incubated for 48 hrs by disk diffusion method. It counts as functional. The following applies: read-out: IZ.
The test system of series [15] is Proteus mirabilis. Briefly: Antibacterial activity against Proteus mirabilis Delta-89 assessed as bacterial growth inhibition incubated for 16 hrs by broth dilution method. It counts as functional.
The subject of series [16] is Pseudomonas aeruginosa. Briefly: Antibacterial activity against Pseudomonas aeruginosa assessed as bacterial growth inhibition by broth microdilution method. It counts as functional.
The subject of series [17] is Mycobacterium tuberculosis. Briefly: Antibacterial activity against Mycobacterium tuberculosis H37Rv ATCC 25618 assessed as bacterial growth inhibition incubated for 5 days by fluorescence based assay. It counts as functional, organism-based. The following applies: H37Rv ATCC 25618, 120 h.
For series [18], the system named is HepG2. The experiment in a line: Cytotoxicity against human HepG2 cells assessed as cell growth inhibition incubated for 72 hrs by Cell Titer Glo assay. It counts as functional, cell-based. The following applies: HepG2, 72 h. (In general: In ATP-based viability assays light output follows the ATP content of the culture.)
Series [19] is described as follows: Protein binding in mouse plasma. It counts as ADME, cell-free. As to conditions: read-out: PB (converted).
A short description of series [20]: Protein binding in human serum. As to conditions: read-out: PB (converted). It counts as ADME, cell-free.
The subject of series [21] is MDA-MB-231. The experiment in a line: Anticancer activity against human MDA-MB-231 cells assessed as cell growth inhibition incubated for 72 hrs by MTT assay. The class given is functional, cell-based. As to conditions: MDA-MB-231, 72 h.
Series [22] concerns MIA PaCa-2. Briefly: Anticancer activity against human MIA PaCa-2 cells assessed as cell growth inhibition incubated for 72 hrs by MTT assay. The class given is functional, cell-based. The following applies: MIA PaCa-2, 72 h.
Series [23] can be described thus: Cytotoxicity against HEK293T cells assessed as reduction in cell viability incubated for 48 hrs by MTT assay. The class given is toxicity, cell-based, HEK-293T. The following applies: human.
Series [24] deals with Streptococcus mutans. Briefly: Antibacterial activity against Streptococcus mutans assessed as bacterial growth inhibition. The class given is functional.
Series [25] concerns Streptococcus mutans. Briefly: Antibiofilm activity against Streptococcus mutans ATCC 27351 assessed as bacterial viability at 0.9 uM by SYTO/PI staining based inverted microscopy relative to control. The class given is functional.
Series [26] has as its system Mycobacterium tuberculosis. Briefly: Antibacterial activity against Mycobacterium tuberculosis H37Rv ATCC 27294 assessed as bacterial growth inhibition by radiometry method. The class given is functional.
In series [27] the test system is Aspergillus niger. Briefly: Antifungal activity against Aspergillus niger ATCC 20408 assessed as fungal growth inhibition by plate colony counting method. The class given is functional.
Series [28] has as its system Vanrija humicola. The experiment in a line: Antifungal activity against Cryptococcus humicola ATCC 9949 assessed as fungal growth inhibition by broth microdilution method. It counts as functional.
The test system of series [29] is Aspergillus niger. The experiment in a line: Antifungal activity against Aspergillus niger ATCC 16404 assessed as fungal growth inhibition by broth microdilution method. The class given is functional.
The test system of series [30] is Candida albicans. The experiment in a line: Antifungal activity against Candida albicans ATCC 14053 assessed as fungal growth inhibition by broth microdilution method. It counts as functional.
The subject of series [31] is Fusarium oxysporum. The experiment in a line: Antifungal activity against Fusarium oxysporum VKM F-140 assessed as fungal growth inhibition by broth microdilution method. The class given is functional.
For series [32], the system named is Mycobacterium tuberculosis. The experiment in a line: Antibacterial activity against Mycobacterium tuberculosis assessed as bacterial growth inhibition. It counts as functional.
Series [33] in a line: Binding affinity to Cryptococcus neoformans beta-carbonic anhydrase assessed as inhibition constant preincubated for 15 mins by bromothymol blue staining based assay.
A short description of series [34]: Binding affinity to Candida glabrata beta-carbonic anhydrase assessed as inhibition constant preincubated for 15 mins by bromothymol blue staining based assay. More on the design: species or system Nakaseomyces glabratus.
For series [35], the system named is Saccharomyces cerevisiae. The experiment in a line: Antifungal activity against Saccharomyces cerevisiae assessed as fungal growth inhibition at 100 ug. The class given is functional. The following applies: read-out: IZ.
The subject of series [36] is Mycolicibacterium smegmatis. The experiment in a line: Antibacterial activity against Mycobacterium smegmatis assessed as bacterial growth inhibition. The class given is functional.
The test system of series [37] is A549. Briefly: Cytotoxicity against human A549 cells assessed as cell growth inhibition. The class given is functional.
The test system of series [38] is Mycolicibacterium smegmatis. Briefly: Antibacterial activity against Mycobacterium smegmatis ATCC 700084 assessed as bacterial growth inhibition incubated for 72 hrs by broth microdilution method. It counts as functional.
For series [39], the system named is Escherichia coli. Briefly: Antibacterial activity against Escherichia coli ATCC 25922 assessed as bacterial growth inhibition incubated for 72 hrs by broth microdilution method. It counts as functional.

Experimental findings from ChEMBL document CHEMBL5104111, “Boron-Containing heterocycles as promising pharmacological agents” (Bioorg Med Chem, 2022) are described below.

In brackets after ≈: the same amount, converted by molar mass. A value given as a limit tells only on which side of the number the result lay.

`Cl.NC[C@H]1OB(O)c2c(OCCCO)cccc21`: in [1], the MIC was found to be 1 µg/mL. The IC50 in series [2] came to 310 nM. On to `Cc1ccc(S(=O)(=O)N2N=Cc3cc(C)oc3B2O)cc1`, for which the results for the MIC in series [3] and in series [4] were 1.56 µg/mL (≈ 5.13 µM) and 3.12 µg/mL (≈ 10.3 µM), respectively. For the compound `COc1ccc([N+]2=C(c3ccccc3)C=C(C(Cl)(Cl)Cl)O[B-]2(F)F)cc1`, the minimum inhibitory concentration (MIC) in series [5] came out at 0.3 µg/mL (≈ 0.717 µM).

For `CC(C)C1=[N+](Cc2cccc(C(F)(F)F)c2)[B-](c2ccccc2)(c2ccccc2)OC1=O`, the IC50 in [6] came out at 268 µM; in [7] it was 76 µM. `NC[C@H]1OB(O)c2c(OCCO)ccc(Cl)c21` [GANFEBOROLE]: in series [8], the AUC was 88200 ng·h/mL. For the same compound, the AUC/dose in series [9] was found to be 2.94 µg·h/mL; in [10], 2.03 µg·h/mL. The ED99 in series [11] is 0.4 mg/kg. This compound also had a half-life in series [12] of 216 min. In the case of `C=CCNC(=S)N1N=Cc2ccccc2B1O`, the values for the zone of inhibition at 25 µg/disc in [13] and in [14] were 9 mm and 7 mm, respectively.

Regarding `Cc1ccc2c(c1)C=NN(S(=O)(=O)c1ccc(N)cc1Cl)B2O`, the MIC in series [15] turned out to be 0.78 µg/mL (≈ 2.23 µM); in series [3], 0.39 µg/mL (≈ 1.12 µM).

Turning to `Clc1ccc(-c2noc3c2COB(c2cccc(Br)c2)OC3)cc1`, the MIC in series [16] was 25 µg/mL (≈ 61.8 µM).

For `CCS(=O)(=O)N1N=Cc2ccc(Oc3ccc(C(F)(F)F)cc3/C=N/O)cc2B1O`, the IC50 was 90 nM in [17] and over 100 µM in series [18]. Besides, the figures for the fraction unbound in [19] and in series [20] were 0.015 and 0.12, respectively. As to `COc1ccc(CN(C(=O)Nc2ccccc2)c2ccc3c(c2)B(O)OC3)cc1`, the figures for the IC50 in series [21] and in [22] were 11.5 µM and 8.3 µM, respectively.

`OB1c2sccc2C=NN1Cc1ccccc1`: the CC50 at 48 h in series [23] was over 100 µM. Turning to `CC1NB(c2ccccc2)OC1c1ccccc1` (stereo not drawn), the MIC in series [24] was determined as 1.3 mM (≈ 308 µg/mL). For the compound `CC1(C)COB(c2ccccc2)N1`, in series [25], the Activity was 60%.

In the case of `CCCS(=O)(=O)N1N=Cc2sc(C)cc2B1O`, the MIC came out at 0.31 µg/mL (≈ 1.14 µM) in [3] and 0.19 µg/mL (≈ 0.698 µM) in series [4]. In the case of `O=C1Nc2ccccc2B(O)N1c1ccccc1`, in series [26], the MIC turned out to be 8 µg/mL (≈ 33.6 µM). As to `O=[N+]([O-])c1cccc(B2NC(c3ccccc3)=NO2)c1`, the MIC in series [27] was 0.09 µM (≈ 0.024 µg/mL).

With `C[C@@H]1[C@H](O)[C@@H](C)/C=C/C=C/C=C/C=C/C=C/C=C/C=C/[C@H](O[C@@H]2O[C@H](C)[C@@H](O)[C@H](NC(=O)CCc3ccc4c(c3)OB(O)C4)[C@@H]2O)C[C@@H]2O[C@](O)(C[C@@H](O)C[C@@H](O)[C@H](O)CC[C@@H](O)C[C@@H](O)CC(=O)O[C@H]1C)C[C@H](O)[C@H]2C(=O)O`, the MIC in series [28], in series [29], in series [30] and in series [31] was 0.5 µg/mL (≈ 0.45 µM) each time.

On to `N#Cc1ccccc1-c1cccc2c1B(O)OC2`, for which the IC90 in series [32] amounted to 30 µM. With `O=C(Nc1ccc(F)cc1)Nc1ccc2c(c1)B(O)OC2`, the Ki in series [33] worked out at 78 nM; in [34], 75 nM. Take `CCNC(=S)N1N=Cc2ccccc2B1O`: the zone of inhibition at 100 µg/disc in series [35] amounted to 4.3 mm.

As to `O=C(NCCCOCCOCCOCCCNC(=O)c1ccc2c(c1)B(O)OC2)c1ccc2c(c1)COB2O`, the minimum inhibitory concentration (MIC) in series [36] amounted to 1.56 µM (≈ 0.843 µg/mL). Besides, the MIC99 in series [37] was over 5 µM.

Take `CCCCB1OC(c2ccccc2)C(C)N1C` (stereo not drawn): in series [24], the MIC turned out to be 0.5 mM (≈ 116 µg/mL). For the compound `NC(=O)N1N=Cc2ccccc2B1O`, the MIC in [38] amounted to 2 µg/mL (≈ 10.6 µM); in series [39], 16 µg/mL (≈ 84.7 µM).

Broadly, the MIC is the least concentration at which growth counts as inhibited. The term IC50 denotes the midpoint of a concentration-inhibition curve. By AUC is commonly meant concentration integrated over time. What is called half-life is the time needed for the level to fall by half in the phase considered. Read a low half-life as rapid decline. A word on the CC50: it is the concentration giving 50% cytotoxicity. By IC90 is commonly meant the concentration at which the effect reaches the 90% level. One may read the Ki as the dissociation constant of the complex between target and ligand, obtained from inhibition or displacement.
